Source: PubChem BioAssay AID256 (DTP/NCI, 2004)
Several values for one entry are separate records, joined by “and”; a condition that tells them apart may be missing. Identical values can stand only once. Inconclusive results and toxic doses are left out.

Test system: CD2F1 mice, L1210 leukemia ip, survival T/C
Assay: NCI In Vivo Anticancer Drug Screen. Data for tumor model L1210 Leukemia (intraperitoneal) in CD2F1 (CDF1) mice
Conditions: endpoint: mean survival time, higher = longer survival
In short: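 Transplantable tumor in mice; compound-treated vs vehicle-treated groups. Read-out = treated/control ratio of the measured endpoint.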

[1] = dose: 50.0 mg/kg/injection, schedule: Q01DX009 (ip), vehicle: saline with Tween-80
[2] = dose: 100.0 mg/kg/injection, schedule: Q01DX001 (ip), vehicle: saline with Tween-80
[3] = dose: 100.0 mg/kg/injection, schedule: Q01DX009 (ip), vehicle: saline with Tween-80
[4] = dose: 200.0 mg/kg/injection, schedule: Q01DX001 (ip), vehicle: saline with Tween-80
[5] = dose: 200.0 mg/kg/injection, schedule: Q01DX009 (ip), vehicle: saline with Tween-80
[6] = dose: 400.0 mg/kg/injection, schedule: Q01DX009 (ip), vehicle: saline with Tween-80
[7] = dose: 100.0 mg/kg/injection, schedule: Q04DX003 (ip), vehicle: saline with Tween-80
[8] = dose: 200.0 mg/kg/injection, schedule: Q04DX003 (ip), vehicle: saline with Tween-80
[9] = dose: 400.0 mg/kg/injection, schedule: Q04DX003 (ip), vehicle: saline with Tween-80
[10] = dose: 400.0 mg/kg/injection, schedule: Q01DX001 (ip), vehicle: saline with Tween-80
[11] = dose: 100.0 mg/kg/injection, schedule: Q04DX002 (ip), vehicle: saline with Tween-80
[12] = dose: 200.0 mg/kg/injection, schedule: Q04DX002 (ip), vehicle: saline with Tween-80

In the case of `C=CCOc1ccc(Cl)cc1`, the T/C (dose: 100.0 mg/kg/injection, schedule: Q01DX001 (ip), vehicle: Klucel (hydroxypropylcellulose) (HPC)) is reported as 108 % of control, the T/C (dose: 200.0 mg/kg/injection, schedule: Q01DX001 (ip), vehicle: Klucel (hydroxypropylcellulose) (HPC)) is reported as 92 % of control and the T/C (dose: 400.0 mg/kg/injection, schedule: Q01DX001 (ip), vehicle: Klucel (hydroxypropylcellulose) (HPC)) is reported as 100 % of control.

`O=Nn1c2ccccc2c2ccccc21` was tested, and the T/C (dose: 50.0 mg/kg/injection, schedule: Q01DX009 (ip), vehicle: Klucel (hydroxypropylcellulose) (HPC)) was 90 % of control, the T/C (dose: 100.0 mg/kg/injection, schedule: Q01DX009 (ip), vehicle: Klucel (hydroxypropylcellulose) (HPC)) was 98 % of control and the T/C (dose: 200.0 mg/kg/injection, schedule: Q01DX009 (ip), vehicle: Klucel (hydroxypropylcellulose) (HPC)) was 102 % of control.

In the case of `c1ccc(-c2cc(-c3cc(-c4ccccc4)on3)no2)cc1`, the T/C [1] is reported as 91 % of control, the T/C [2] is reported as 101 % of control and the T/C [3] is reported as 94 % of control. For the same molecule, the T/C [4] was 100 % of control and the T/C [5] was 96 % of control.

In the case of `Cc1ccc(S(=O)(=O)OC2C(O)C(CO)OC2n2c(Br)c(C#N)c3c(N)ncnc32)cc1` (stereo not drawn), the T/C (dose: 25.0 mg/kg/injection, schedule: Q01DX005 (ip), vehicle: saline with Tween-80) is reported as 93 % of control, the T/C (dose: 50.0 mg/kg/injection, schedule: Q01DX005 (ip), vehicle: saline with Tween-80) is reported as 102 % of control and the T/C (dose: 100.0 mg/kg/injection, schedule: Q01DX005 (ip), vehicle: saline with Tween-80) is reported as 100 % of control. For the same molecule, the T/C (dose: 200.0 mg/kg/injection, schedule: Q01DX005 (ip), vehicle: saline with Tween-80) was 96 % of control.

With `NC(CO)(CO)CO` the T/C (dose: 100.0 mg/kg/injection, schedule: Q01DX009 (ip), vehicle: saline) was 98 % of control, the T/C (dose: 200.0 mg/kg/injection, schedule: Q01DX009 (ip), vehicle: saline) was 93 % of control and the T/C (dose: 400.0 mg/kg/injection, schedule: Q01DX009 (ip), vehicle: saline) was 100 % of control.

In the case of `C/C=C(\C)C(C)O` (stereo not drawn), the T/C (dose: 50.0 mg/kg/injection, schedule: Q01DX005 (ip), vehicle: saline) is reported as 87 % of control, the T/C [1] is reported as 98 % of control and the T/C (dose: 50.0 mg/kg/injection, schedule: Q04DX002 (ip), vehicle: saline + alcohol) is reported as 92 % of control. For the same molecule, the T/C (dose: 100.0 mg/kg/injection, schedule: Q01DX005 (ip), vehicle: saline) was 102 % of control, the T/C [3] was 98 % of control and the T/C (dose: 100.0 mg/kg/injection, schedule: Q04DX002 (ip), vehicle: saline + alcohol) was 103 % of control. The T/C (dose: 200.0 mg/kg/injection, schedule: Q01DX005 (ip), vehicle: saline) was 94 % of control, the T/C [5] was 95 % of control and the T/C (dose: 200.0 mg/kg/injection, schedule: Q04DX002 (ip), vehicle: saline + alcohol) was 101 % of control. For the same molecule, the T/C (dose: 400.0 mg/kg/injection, schedule: Q01DX005 (ip), vehicle: saline) was 94 % of control, the T/C [6] was 102 % of control and the T/C (dose: 400.0 mg/kg/injection, schedule: Q04DX002 (ip), vehicle: saline + alcohol) was 103 % of control.

In the case of `CC(C)(C)c1ccc(SCC#CCOc2ccc(Cl)cc2)cc1`, the T/C [3] is reported as 95 % of control, the T/C [7] is reported as 95 % of control and the T/C [5] is reported as 91 % of control. The T/C [8] was 96 % of control, the T/C [6] was 88 % of control and the T/C [9] was 87 % of control.

For `CNC(=O)/C=C/C1=CN2C(=O)c3ccc(C)c(O)c3NC(OC)C2C1` (stereo not drawn), the T/C (dose: 0.01 mg/kg/injection, schedule: Q01DX009 (ip), vehicle: saline) was 105 % of control and 108 % of control, the T/C (dose: 0.02 mg/kg/injection, schedule: Q01DX009 (ip), vehicle: saline) was 95 % of control and the T/C (dose: 0.03 mg/kg/injection, schedule: Q01DX009 (ip), vehicle: saline) was 112 % of control. The T/C (dose: 0.05 mg/kg/injection, schedule: Q01DX009 (ip), vehicle: saline) was 100 % of control and 106 % of control and 108 % of control, the T/C (dose: 0.1 mg/kg/injection, schedule: Q01DX009 (ip), vehicle: saline) was 115 % of control and 102 % of control and 106 % of control and the T/C (dose: 0.2 mg/kg/injection, schedule: Q01DX009 (ip), vehicle: saline) was 115 % of control and 100 % of control. The T/C (dose: 0.4 mg/kg/injection, schedule: Q01DX009 (ip), vehicle: saline) was 112 % of control.

For `O=C(CC([Se]c1ccccc1)c1ccccc1)c1ccccc1` (stereo not drawn), the T/C (dose: 50.0 mg/kg/injection, schedule: Q01DX009 (ip), vehicle: saline sonified) was 102 % of control, the T/C (dose: 100.0 mg/kg/injection, schedule: Q01DX009 (ip), vehicle: saline sonified) was 102 % of control and the T/C [7] was 105 % of control. For the same molecule, the T/C (dose: 200.0 mg/kg/injection, schedule: Q01DX009 (ip), vehicle: saline sonified) was 105 % of control and the T/C [8] was 104 % of control.

For `O=C(Cc1ccc([N+](=O)[O-])cc1)Nc1ccc(O)cc1`, the T/C [2] was 98 % of control, the T/C [4] was 104 % of control and the T/C [10] was 101 % of control.

For `CCOC(=O)c1c(NC(=O)CBr)sc(C)c1C`, the T/C (dose: 75.0 mg/kg/injection, schedule: Q01DX001 (ip), vehicle: saline) was 104 % of control, the T/C (dose: 150.0 mg/kg/injection, schedule: Q01DX001 (ip), vehicle: saline) was 98 % of control and the T/C (dose: 300.0 mg/kg/injection, schedule: Q01DX001 (ip), vehicle: saline) was 104 % of control.

In the case of `CCN(CC)Cc1cc(Nc2ncnc3oc(C)c(C)c23)ccc1O`, the T/C [2] is reported as 100 % of control, the T/C [3] is reported as 102 % of control and the T/C [4] is reported as 95 % of control. The T/C [5] was 96 % of control, the T/C [10] was 95 % of control and the T/C [6] was 100 % of control.

For `O=CO.[Mn]`, the T/C (dose: 5.0 mg/kg/injection, schedule: Q01DX001 (ip), vehicle: saline) was 96 % of control, the T/C (dose: 10.0 mg/kg/injection, schedule: Q01DX001 (ip), vehicle: saline) was 101 % of control and the T/C (dose: 20.0 mg/kg/injection, schedule: Q01DX001 (ip), vehicle: saline) was 96 % of control. For the same molecule, the T/C (dose: 40.0 mg/kg/injection, schedule: Q01DX001 (ip), vehicle: saline) was 96 % of control and the T/C (dose: 80.0 mg/kg/injection, schedule: Q01DX001 (ip), vehicle: saline) was 98 % of control.

`CCCCCCCCCCCCCC#CC(=O)O` was tested, and the T/C (dose: 3.12 mg/kg/injection, schedule: Q01DX009 (ip), vehicle: saline with Tween-80) was 101 % of control and 109 % of control, the T/C (dose: 6.25 mg/kg/injection, schedule: Q01DX009 (ip), vehicle: saline with Tween-80) was 96 % of control and 98 % of control and the T/C (dose: 12.5 mg/kg/injection, schedule: Q01DX009 (ip), vehicle: saline with Tween-80) was 91 % of control and 98 % of control. The T/C (dose: 25.0 mg/kg/injection, schedule: Q01DX009 (ip), vehicle: saline with Tween-80) was 91 % of control and 98 % of control, the T/C [1] was 91 % of control and 95 % of control and the T/C [3] was 88 % of control.

`COC(=O)C1C(C(=O)OC)C2(C)C(=O)C1(C)C(c1ccccc1)=C2c1ccccc1` (stereo not drawn) was tested, and the T/C [11] was 101 % of control, the T/C [12] was 90 % of control and the T/C (dose: 400.0 mg/kg/injection, schedule: Q04DX002 (ip), vehicle: saline with Tween-80) was 90 % of control.

With `COc1cc2cc(c1Cl)N(C)C(=O)/C=C/C1(C)OC1C(C)C1CC(O)(NC(=O)O1)C(OC)C=C/C=C(\C)C2` (stereo not drawn) the T/C (dose: 1.3 micrograms/kg/injection, schedule: Q01DX009 (ip), vehicle: saline + alcohol) was 94 % of control, the T/C (dose: 2.5 micrograms/kg/injection, schedule: Q01DX009 (ip), vehicle: saline + alcohol) was 94 % of control and the T/C (dose: 5.0 micrograms/kg/injection, schedule: Q01DX009 (ip), vehicle: saline + alcohol) was 97 % of control. The T/C (dose: 10.0 micrograms/kg/injection, schedule: Q01DX009 (ip), vehicle: saline + alcohol) was 97 % of control.

For `Cc1ccc(S(=O)(=O)Oc2ccc(Br)cc2)cc1`, the T/C [11] was 96 % of control and the T/C [12] was 86 % of control.

For `Cc1ccc(S(=O)(=O)OC2C3OCC(O3)C(O)C2O)cc1` (stereo not drawn), the T/C [7] was 97 % of control, the T/C [8] was 94 % of control and the T/C [9] was 94 % of control.

`CCC(C)(C[NH-])C[NH-].[Cl][Pt+2][Cl]` was tested, and the T/C (dose: 1.56 mg/kg/injection, schedule: Q04DX003 (ip), vehicle: saline) was 114 % of control, the T/C (dose: 3.12 mg/kg/injection, schedule: Q04DX003 (ip), vehicle: saline) was 118 % of control and the T/C (dose: 6.25 mg/kg/injection, schedule: Q04DX003 (ip), vehicle: saline) was 124 % of control. The T/C (dose: 12.5 mg/kg/injection, schedule: Q04DX003 (ip), vehicle: saline with Tween-80) was 285 % of control and the T/C (dose: 25.0 mg/kg/injection, schedule: Q04DX003 (ip), vehicle: saline) was 312 % of control.

In the case of `O=C1c2ccccc2C(=O)c2c(O)c3c(c(O)c21)CCCC3O` (stereo not drawn), the T/C (dose: 0.05 mg/kg/injection, schedule: Q01DX001 (ip), vehicle: saline) is reported as 101 % of control, the T/C (dose: 0.1 mg/kg/injection, schedule: Q01DX001 (ip), vehicle: saline) is reported as 98 % of control and the T/C (dose: 0.2 mg/kg/injection, schedule: Q01DX001 (ip), vehicle: saline) is reported as 101 % of control. The T/C (dose: 0.4 mg/kg/injection, schedule: Q01DX001 (ip), vehicle: saline) was 101 % of control and the T/C (dose: 0.8 mg/kg/injection, schedule: Q01DX001 (ip), vehicle: saline) was 101 % of control.
